Source: patent publication US12522564B2, “Polymorphs of elafibranor” (GENFIT, priority 2021, dated 2026)

Legend:
[1] = Saturation concentration of elafibranor in the crystallization solvent; assay type: physicochemical; details: room temperature
[2] = system: patients and healthy volunteers; details: over 800 patients and healthy volunteers; cited from earlier work
[3] = system: animal disease models; details: cited from earlier work
[4] = up to 2-year carcinogenicity studies; cited from earlier work

- saturation concentration of elafibranor in the solvent ([1]; N,N-dimethylacetamide): 11.9 mg/mL
- saturation concentration of elafibranor in the solvent ([1]; ethanol): 28.7 mg/mL
- saturation concentration of elafibranor in the solvent ([1]; methanol): 17.7 mg/mL
Structure (SMILES): CSc1ccc(C(=O)/C=C/c2cc(C)c(OC(C)(C)C(=O)O)c(C)c2)cc1 [Elafibranor, 2-(2,6-dimethyl-4-{3-[4-(methylsulfanyl)phenyl]-3-oxopropen-1-yl}phenoxy)-2-methylpropanoic acid]
- HDL-C levels [2]: increase
- insulin sensitivity and glucose homeostasis [2]: improvement
- markers of liver dysfunction, including ALAT, ASAT, γGT, ALP [2]: improvement
- plasma triglycerides and LDL-C [2]: decrease
- histological NASH parameters (steatosis, inflammation, fibrosis) [3]: efficacy
- safety in full toxicological package [4]: absence of safety concern
